The assay has as its target Activated CDC42 kinase 1 (Homo sapiens, UniProt Q07912). Nature of the assay: Inhibition of human ACK1 kinase activity using biotinylated ATGRYYAMKIL - AKT peptide substrate assessed as phosphorylation at 10 uM by ELISA. Type of assay: single protein.

SMILES strings stand for the structures.

Sequence of Activated CDC42 kinase 1 (Q07912 whole entry, looked up): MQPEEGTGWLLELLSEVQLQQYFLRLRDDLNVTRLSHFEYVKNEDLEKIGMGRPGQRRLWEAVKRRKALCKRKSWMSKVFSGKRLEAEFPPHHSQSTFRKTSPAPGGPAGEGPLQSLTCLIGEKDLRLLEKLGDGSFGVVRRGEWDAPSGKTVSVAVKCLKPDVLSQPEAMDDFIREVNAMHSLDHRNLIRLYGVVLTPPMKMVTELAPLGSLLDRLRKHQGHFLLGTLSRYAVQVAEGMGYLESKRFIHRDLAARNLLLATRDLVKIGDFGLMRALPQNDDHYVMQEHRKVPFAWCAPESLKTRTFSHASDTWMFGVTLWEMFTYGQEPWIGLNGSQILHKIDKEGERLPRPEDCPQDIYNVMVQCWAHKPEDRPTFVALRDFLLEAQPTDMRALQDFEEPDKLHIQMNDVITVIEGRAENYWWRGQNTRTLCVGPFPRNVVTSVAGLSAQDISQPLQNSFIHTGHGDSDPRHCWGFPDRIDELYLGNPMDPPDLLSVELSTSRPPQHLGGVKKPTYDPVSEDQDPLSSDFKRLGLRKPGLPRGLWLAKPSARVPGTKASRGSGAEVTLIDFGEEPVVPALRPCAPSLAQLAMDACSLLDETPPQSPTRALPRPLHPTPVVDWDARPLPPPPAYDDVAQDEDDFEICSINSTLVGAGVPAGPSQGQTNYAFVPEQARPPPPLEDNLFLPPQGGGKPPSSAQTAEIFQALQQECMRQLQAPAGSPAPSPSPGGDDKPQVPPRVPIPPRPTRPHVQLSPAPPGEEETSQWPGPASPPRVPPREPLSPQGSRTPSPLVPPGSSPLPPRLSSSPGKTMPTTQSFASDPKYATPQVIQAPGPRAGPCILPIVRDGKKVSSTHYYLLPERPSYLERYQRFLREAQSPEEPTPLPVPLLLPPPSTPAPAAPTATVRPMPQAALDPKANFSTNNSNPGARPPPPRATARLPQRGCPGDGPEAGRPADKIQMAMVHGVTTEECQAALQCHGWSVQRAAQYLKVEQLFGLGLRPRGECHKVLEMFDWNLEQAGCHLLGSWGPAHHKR

Take `CN1CCN(c2ccc(Nc3ncc(Br)c(NCC4CCCO4)n3)cc2)CC1` (stereo not given): the inhibition was found to be 93%. Under `O=C(Nc1c(F)cccc1Cl)c1cnc(Nc2ccc(N3CCNCC3)cc2)nc1NCC1CCCO1` (racemic) stands 89.5%. Under `O=C(Nc1c(F)cccc1Cl)c1cnc(Nc2ccc(C3CCNCC3)cc2)nc1NCC1CCCO1` (racemic) stands 97%; under `O=C(O)CCC(=O)N1CCN(c2ccc(Nc3ncc(Br)c(NCC4CCCO4)n3)cc2)CC1` (stereo not given), 92%; under `O=C(Nc1c(F)cccc1Cl)c1cnc(Nc2ccc(O)cc2)nc1NCC1CCCO1` (racemic), 85%. Take `CN1CCN(c2ccc(Nc3ncc(C(=O)Nc4c(F)cccc4Cl)c(NCC4CCCO4)n3)cc2)CC1` (stereo not given): the inhibition was found to be 97%.

As to `Oc1ccc(Nc2ncc(Br)c(NCC3CCCO3)n2)cc1F` (stereo not given), the inhibition is 76%. For the molecule `CN1CCN(c2ccc(Nc3ncc(Cl)c(NCC4CCCO4)n3)cc2)CC1` (racemic), the inhibition is 90.5%. Under `CN(C)CCNC(=O)CCc1ccc(Nc2ncc(Cl)c(NCC3CCCO3)n2)cc1` (stereo not given) stands 68%; under `Clc1cnc(Nc2ccc(N3CCNCC3)cc2)nc1NCC1CCCO1` (racemic), 82%.

With `O=C(O)C1CCN(c2ccc(Nc3ncc(Br)c(NCC4CCCO4)n3)cc2)CC1` (racemic), the inhibition came to 85%. Under `O=C(Nc1c(F)cccc1Cl)c1cnc(Nc2ccc(O)c(F)c2)nc1NCC1CCCO1` (stereo not given) stands 66%; under `O=C(O)Cc1ccc(Nc2ncc(Br)c(NCC3CCCO3)n2)cc1` (stereo not given), 61%. Under `O=C(O)Cc1ccc(Nc2ncc(Cl)c(NCC3CCCO3)n2)cc1` (stereo not given) stands 76.5%; under `COc1ccc(Nc2ncc(Br)c(NCC3CCCO3)n2)cc1` (stereo not given), 67%.

The values above are taken from ChEMBL document CHEMBL3425491, “Development of novel ACK1/TNK2 inhibitors using a fragment-based approach” (J Med Chem, 2015).
